Measured values from ChEMBL document CHEMBL3046388, “Antifungal and insecticidal activities of daphnodorins A, B and C” (1987).

Experiments:
Type in all cases: functional
[1] = tested on: Nilaparvata lugens; experiment: Insecticidal activity against third-instar larvae of Nilaparvata lugens (brown planthopper) in compound treated Oriza sativa stem assessed as mortality at 500 ppm at 25 to 27 degC measured after 5 days by stem dip method; details: 120 h
[2] = tested on: Pyricularia oryzae; experiment: Antifungal activity against Magnaporthe oryzae inoculated in compound treated Oryza sativa leaves assessed as protective value at 27 degC at 50 ppm by spraying method
[3] = tested on: Blumeria graminis; experiment: Antifungal activity against Blumeria graminis inoculated in compound treated Triticum aestivum leaves assessed as protective value at 27 degC at 500 ppm by spraying method
[4] = tested on: Pyricularia oryzae; experiment: Antifungal activity against Magnaporthe oryzae inoculated in compound treated Oryza sativa leaves assessed as protective value at 27 degC at 10 ppm by spraying method
[5] = tested on: Tetranychus urticae; experiment: Insecticidal activity against adult and eggs of Tetranychus urticae (two-spotted spider mite) assessed as mortality at 500 ppm sprayed onto organism at 25 to 27 degC measured after 5 days; details: 120 h
[6] = tested on: Puccinia recondita; experiment: Antifungal activity against Puccinia recondita inoculated in compound treated Triticum aestivum leaves assessed as protective value at 27 degC at 500 ppm by spraying method
[7] = tested on: Pyricularia oryzae; experiment: Antifungal activity against Magnaporthe oryzae inoculated in compound treated Oryza sativa leaves assessed as residual effect on leaves at 27 degC at 500 ppm by spraying method
[8] = tested on: Botrytis cinerea; experiment: Antifungal activity against Botryotinia fuckeliana inoculated in compound treated Pisum sativum var. arvense POIL. leaves assessed as protective value at 27 degC at 500 ppm by spraying method
[9] = tested on: Rhizoctonia solani; experiment: Antifungal activity against Rhizoctonia solani inoculated in compound treated Oryza sativa leaves assessed as protective value at 27 degC at 500 ppm by spraying method
[10] = tested on: Spodoptera litura; experiment: Insecticidal activity against third-instar larvae Spodoptera litura in compound treated cabbage leaves assessed as mortality at 500 ppm at 25 to 27 degC measured after 5 days by leaf dip method; details: foliar, 120 h
[11] = tested on: Callosobruchus chinensis; experiment: Insecticidal activity against adult Callosobruchus chinensis in compound treated ingenmame leaves assessed as mortality at 500 ppm at 25 to 27 degC measured after 5 days; details: 120 h
[12] = tested on: Pyricularia oryzae; experiment: Antifungal activity against Magnaporthe oryzae inoculated in compound treated Oryza sativa leaves assessed as protective value at 27 degC at 200 ppm by spraying method
[13] = tested on: Pyricularia oryzae; experiment: Antifungal activity against Magnaporthe oryzae inoculated in compound treated Oryza sativa leaves assessed as protective value at 27 degC at 500 ppm by spraying method
[14] = tested on: Phytophthora infestans; experiment: Antifungal activity against Phytophthora infestans inoculated in compound treated Lycopersicon esculentum MILL, leaves assessed as protective value at 27 degC at 500 ppm by spraying method

Row | SMILES | mortality at 500 ppm [1] [%] | Activity [2] [%] | Activity [3] [%] | Activity [4] [%] | mortality at 500 ppm [5] [%] | Activity [6] [%] | Activity [7] [%] | Activity [8] [%] | Activity [9] [%] | mortality at 500 ppm [10] [%] | mortality at 500 ppm [11] [%] | Activity [12] [%] | Activity [13] [%] | Activity [14] [%]
1 | O=C(c1c(O)cc(O)cc1O)c1c(-c2ccc(O)cc2)oc2cc(O)c3c(c12)O[C@H](c1ccc(O)cc1)CC3 [DAPHNODORIN A] | 10 | 83 | 0 | 58 | 30 | 0 | 48 | 0 | 0 | 20 | 0 | 93 | 95 | 0
2 | O=C(c1c(O)cc(O)cc1O)c1c(-c2ccc(O)cc2)oc2cc(O)c3c(c12)O[C@H](c1ccc(O)cc1)[C@@H](O)C3 [DAPHNODORIN B] | 0 |  | 0 |  | 45 | 0 |  | 0 | 0 | 30 | 30 |  | 79 | 0
3 | O=C1c2c(O)cc(O)cc2O[C@]12c1c(cc(O)c3c1O[C@H](c1ccc(O)cc1)CC3)O[C@H]2c1ccc(O)cc1 [DAPHNODORIN C] | 0 | 69 | 0 | 40 | 11 | 0 | 40 | 0 | 0 | 10 | 10 | 89 | 90 | 0
